Molecular target: Sodium channel protein type 9 subunit alpha (Homo sapiens, UniProt Q15858)
Assay: Inhibition of human Nav1.7 expressed in HEK293 cells by automated electrophysiological patch clamp assay
Assay type: cell-based

Sequence of Sodium channel protein type 9 subunit alpha (Q15858 whole entry): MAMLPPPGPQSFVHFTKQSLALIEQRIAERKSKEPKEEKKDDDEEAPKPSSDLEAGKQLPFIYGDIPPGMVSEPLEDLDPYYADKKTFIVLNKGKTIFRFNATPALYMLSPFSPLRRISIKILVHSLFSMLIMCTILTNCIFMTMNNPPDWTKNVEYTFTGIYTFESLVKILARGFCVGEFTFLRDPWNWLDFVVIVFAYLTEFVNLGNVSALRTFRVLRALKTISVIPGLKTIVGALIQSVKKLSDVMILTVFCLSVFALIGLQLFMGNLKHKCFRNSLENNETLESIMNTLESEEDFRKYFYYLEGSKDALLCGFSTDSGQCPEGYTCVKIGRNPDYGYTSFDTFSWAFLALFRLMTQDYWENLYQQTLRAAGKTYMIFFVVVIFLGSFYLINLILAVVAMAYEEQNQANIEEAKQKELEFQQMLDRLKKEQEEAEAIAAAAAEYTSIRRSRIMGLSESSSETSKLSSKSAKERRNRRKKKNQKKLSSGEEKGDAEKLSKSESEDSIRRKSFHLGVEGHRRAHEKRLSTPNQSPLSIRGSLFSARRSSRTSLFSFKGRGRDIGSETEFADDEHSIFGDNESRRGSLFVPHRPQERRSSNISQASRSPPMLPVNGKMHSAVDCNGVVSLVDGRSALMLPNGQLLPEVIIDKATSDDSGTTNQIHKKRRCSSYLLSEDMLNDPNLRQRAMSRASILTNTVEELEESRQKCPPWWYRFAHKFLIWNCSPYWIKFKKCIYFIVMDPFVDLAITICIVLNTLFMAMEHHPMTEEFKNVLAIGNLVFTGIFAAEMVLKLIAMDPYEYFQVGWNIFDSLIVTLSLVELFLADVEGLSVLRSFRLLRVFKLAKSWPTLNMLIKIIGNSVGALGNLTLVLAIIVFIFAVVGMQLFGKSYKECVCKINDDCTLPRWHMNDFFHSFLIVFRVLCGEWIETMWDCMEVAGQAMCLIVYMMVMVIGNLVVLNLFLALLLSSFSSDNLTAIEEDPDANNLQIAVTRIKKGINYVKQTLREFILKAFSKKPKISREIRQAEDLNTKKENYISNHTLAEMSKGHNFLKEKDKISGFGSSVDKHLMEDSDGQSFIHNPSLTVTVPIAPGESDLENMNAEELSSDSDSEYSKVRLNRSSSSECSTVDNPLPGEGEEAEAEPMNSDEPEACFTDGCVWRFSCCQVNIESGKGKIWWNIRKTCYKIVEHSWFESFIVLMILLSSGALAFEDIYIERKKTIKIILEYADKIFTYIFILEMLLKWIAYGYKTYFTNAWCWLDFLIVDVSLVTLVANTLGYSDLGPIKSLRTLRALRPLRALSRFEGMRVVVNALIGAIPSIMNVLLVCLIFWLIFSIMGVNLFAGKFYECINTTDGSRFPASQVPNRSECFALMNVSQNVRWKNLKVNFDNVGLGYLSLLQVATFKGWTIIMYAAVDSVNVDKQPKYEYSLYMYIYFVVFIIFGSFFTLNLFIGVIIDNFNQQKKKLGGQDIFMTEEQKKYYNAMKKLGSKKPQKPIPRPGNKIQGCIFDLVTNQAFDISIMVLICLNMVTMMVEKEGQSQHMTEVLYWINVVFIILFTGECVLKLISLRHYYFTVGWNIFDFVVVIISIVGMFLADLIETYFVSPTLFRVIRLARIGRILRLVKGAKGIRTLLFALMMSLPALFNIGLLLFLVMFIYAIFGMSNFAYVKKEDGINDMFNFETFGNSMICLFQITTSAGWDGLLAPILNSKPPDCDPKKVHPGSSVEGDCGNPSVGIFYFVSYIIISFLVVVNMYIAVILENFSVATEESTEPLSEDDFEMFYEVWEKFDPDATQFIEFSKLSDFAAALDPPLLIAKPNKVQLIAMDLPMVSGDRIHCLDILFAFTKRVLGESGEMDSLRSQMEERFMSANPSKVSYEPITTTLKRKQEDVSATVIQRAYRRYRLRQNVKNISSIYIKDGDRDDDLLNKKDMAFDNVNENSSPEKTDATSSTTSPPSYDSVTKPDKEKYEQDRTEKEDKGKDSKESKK

Structure (SMILES)	IC50 [nM]
NC(=O)[C@@H]1CC[C@H](c2ccc(Oc3nnnn3-c3cc(F)ccc3OC(F)(F)F)cc2)N1	570
Cc1ccc(Cl)cc1-n1nnnc1Oc1ccc([C@H]2CC[C@@H](C(N)=O)N2)cc1	720
NC(=O)[C@@H]1CC[C@H](c2ccc(Oc3nnnn3-c3ccccc3OC(F)(F)F)cc2)N1	1100
Cc1cccc(C)c1-n1nnnc1Oc1ccc([C@H]2CC[C@@H](C(N)=O)N2)cc1	890
CN1[C@@H](c2ccc(Oc3nnnn3-c3ccccc3C(F)(F)F)cc2)CC[C@H]1C(N)=O	1800
CN(C)C(=O)[C@@H]1CC[C@H](c2ccc(Oc3nnnn3-c3ccccc3OC(F)(F)F)cc2)N1	1800
NC(=O)[C@@H]1CC[C@H](c2ccc(Oc3nnnn3-c3cc(Cl)ccc3OC(F)(F)F)cc2)N1	680
Cc1cc(C(F)(F)F)ccc1-n1nnnc1Oc1ccc([C@H]2CC[C@@H](C(N)=O)N2)cc1	1200
COc1ccc(C)c(-n2nnnc2Oc2ccc([C@H]3CC[C@@H](C(N)=O)N3)cc2)c1	1100
CC(C)(C)c1ccccc1-n1nnnc1Oc1ccc([C@H]2CC[C@@H](C(N)=O)N2)cc1	1500

— ChEMBL document CHEMBL4396975, “Sodium Channel Modulators and Their Method of Use” (ACS Med Chem Lett, 2019)
